{"source": "patent US20260193171A1", "about": "“PHARMACEUTICAL SALT OF POLYAMINE DERIVATIVE, CRYSTAL FORM THEREOF, AND PREPARATION METHOD THEREFOR” (WUHAN WUYAO SCI & TECH CO., LTD, priority 2022, published 2026)", "assay_type_in_all_cases": "physicochemical", "key": {"[1]": {"assay": "Screening of salt form (salt-forming morphology)", "details": "for Salt-forming morphology: free base in ethanol plus acid, room temperature, acid-base molar feeding ratio 1:1 (α, unmarked) or 3:1 (β)", "experimental": "The subsequent processing steps were as follows: 1) the turbid system(s) was centrifuged to separate solids; 2) the wall-sticking and gelling system(s) was subjected to cyclic heating and cooling treatment at 25-50° C. (the heating and cooling procedure is shown in Table 5) for the purpose of trying to improve the apparent state/obtain solids; 3) the clear or slightly turbid system(s) was magnetically stirred at 5° C. for about 5 h, and then left to stand at −20° C. overnight for the purpose of trying to collect a sufficient amount of solids for subsequent characterization, and if the amount of solids was still low, slow volatilization at room temperature was performed; if the system(s) was still clear ultimately, anti-solvent addition (n-heptane) or slow volatilization at room temperature was performed. The solids obtained above were centrifuged."}, "[2]": {"assay": "Solid stability test at 25° C./60% RH, chemical purity by HPLC", "details": "for Change in properties and purity on storage: 5 days and 2 weeks; for Purity (peak area, %) 0 day: initial sample; for Stability (judgement in words): room temperature storage", "experimental": "The stability of a sample(s) was determined by HPLC, and specifically, Agilent 1260 Infinity II LC System (equipped with a DAD detector) was used to collect the purity and solubility data of the sample(s).\nTo assess the solid stability of different salts, about 15 mg of a sample was weighed into an HPLC vial, and the vial was opened and placed at 25° C./60% RH. The initial sample and the samples stored for 5 days and 2 weeks were subjected to chemical purity assays (HPLC) and hygroscopicity tests. […] The solid phosphate prepared with an acid-base feeding ratio of 1 or 3 was sampled to measure the acid-base ratio, and the test method for the content of phosphate radical ions is shown in Table 2.\n(§1) The stability of the samples were determined by HPLC, and specifically, Agilent 1260 Infinity II LC System (equipped with a DAD detector) was used to collect the purity and solubility data of samples. The hygroscopicity of samples was determined according to the method in the Phamacopoeia of the People's Republic of China, and the specific determination method is shown in section “6. Determination of hygroscopicity” of the specification."}, "[3]": {"assay": "Determination of hygroscopicity (Chinese Pharmacopoeia 2015)", "details": "25° C., 80% RH, 24 h; for Hygroscopicity (%): weight gain", "experimental": "The hygroscopicity was determined by referring to the guiding principle of the hygroscopicity test of medicaments in the Phamacopoeia of the People's Republic of China 2015 Edition. The specific test method is as follows: • 1. taking a dried glass weighing bottle with a stopper (outside diameter: 50 mm, height: 15 mm) and placing in a suitable 25° C.±1° C. thermostatic dryer (with a saturated ammonium chloride or ammonium sulfate solution placed in the lower part) or a climatic cabinet (with temperature set at 25° C.±1° C., and relative humidity set at 80%±2%) one day before the test, and accurately weighing the weight (m1). • 2. taking an appropriate amount of a test sample, spreading it in the weighing bottle described above with a thickness of about 1 mm, and accurately weighing the weight (m2). • 3. opening the weighing bottle, and placing it under constant temperature and humidity conditions for 24 h together with the bottle cap. • 4. covering the weighing bottle, and accurately weighing the weight (m3).\nas §1"}, "[4]": {"assay": "Stability of acid-base ratio on recrystallization in methanol-water or water-methanol", "details": "methanol-water or water-methanol recrystallization system"}, "[5]": {"assay": "Dynamic solubility in water and biological vehicles at 37° C.", "details": "for solubility: thermodynamic from solid, 100 rpm, 1/4/24 h, HPLC", "experimental": "The phosphate was subjected to dynamic solubility tests in water and 3 biological vehicles (simulated gastric juice SGF, simulated fasting intestinal juice FaSSIF, and simulated feeding intestinal juice FeSSIF) at 37° C., and the specific method for the solubility tests were as follows: four samples of 30 mg each were weighed, and added into 3 mL of water and 3 biological solvents separately, and shaken at a constant temperature of 37° C.\nThe solubility of the phosphate in water/SGF/FaSSIF/FeSSIF was >9 mg/mL. The solubility of samples was determined by HPLC, and specifically, Agilent 1260 Infinity II LC System (equipped with a DAD detector) was used to collect the purity and solubility data of samples. […] The phosphate had good solubility both in water and simulated in-vivo environment."}, "[6]": {"assay": "Stability of free base left at room temperature"}, "[7]": {"assay": "Crystal form stability of phosphate crystal form A", "details": "2 weeks", "experimental": "The conditions of the X-ray powder diffractometer (XRPD) test were as follows: X-ray powder diffraction data of a sample(s) was collected at ambient conditions using Bruker D2 PHASER X-ray powder diffractometer with an X-ray emitter power of 300 W, a sample stage with no background signal, a step speed of 0.15 s/step, total step of 1837 steps, a step size of 2θ=0.02°, a voltage of 30 kV, and a current of 10 mA. The X-ray tube was a tube of Cu target (Kα) with a Kα2/Kα1 strength ratio of 0.50 (1.54439 Å/1.5406 Å)."}, "[8]": {"assay": "Observation of isolated solid after filtration", "details": "after slurrying with ethyl acetate and filtration, room temperature", "experimental": "The solution of phosphoric acid in methanol was slowly and dropwise added to the solution of the free base in methanol. The mixture was reacted under stirring at 0-5° C. for 4 h. Serious wall sticking was observed. After the methanol was concentrated to dryness, the sticky solid on the wall was scraped by a spatula, slurried with ethyl acetate, and then filtered. […] The oil was dried in an oven at 30° C. for 16 h to obtain a solid. The solid was sampled for purity, content, and acid-base ratio tests. The acid-base ratio is the molar amount of phosphoric acid/the molar amount of bis((N-3-aminopropyl)-(N-(3,4-dimethoxyphenylpropionyl)))aminopropylamine, namely the acid-base molar ratio."}}, "note": "Where two headings read alike, the source gives them in different places."}
{"molecule": "O=C(O)[C@H](O)[C@@H](O)C(=O)O", "note": "[L-tartaric acid]", "values": [{"measurement": "Salt-forming morphology", "setting": "[1]", "result": "Solid^※"}, {"measurement": "State of solid after being sealed and placed at room temperature", "setting": "[1]; sealed, 1 week", "result": "gelled"}]}
{"molecule": "O=C(O)/C=C/C(=O)O", "note": "[Fumaric acid]", "values": [{"measurement": "Salt-forming morphology", "setting": "[1]", "result": "Gel^#"}]}
{"molecule": "bis((N-3-aminopropyl)-(N-(3,4-dimethoxyphenylpropionyl)))aminopropylamine phosphate", "values": [{"measurement": "Purity (peak area, %) 2 weeks", "setting": "[2]; 25° C./60% RH, open vial, 2 weeks, HPLC", "result": 99.24, "unit": "%"}, {"measurement": "Change in properties and purity on storage", "setting": "[2]; 25° C./60% RH, open vial", "result": "change into liquid from powdery solid"}, {"measurement": "Purity (peak area, %) 5 days", "setting": "[2]; 25° C./60% RH, open vial, 5 days, HPLC", "result": 99.41, "unit": "%"}, {"measurement": "Purity (peak area, %) 0 day", "setting": "[2]; 25° C./60% RH, open vial, HPLC", "result": 99.45, "unit": "%"}, {"measurement": "Stability (judgement in words)", "setting": "[2]", "result": "poor stability"}, {"measurement": "Hygroscopicity class", "setting": "[3]", "result": "extremely hygroscopic"}, {"measurement": "Hygroscopicity (%)", "setting": "[3]", "result": 18.05, "unit": "%"}, {"measurement": "Change of acid-base ratio after recrystallization", "setting": "[4]", "result": "more than 10%"}]}
{"molecule": "CS(=O)(=O)O", "note": "[Methanesulfonic acid]", "values": [{"measurement": "Salt-forming morphology", "setting": "[1]", "result": "Gel*"}]}
{"molecule": "O=C(O)c1ccccc1", "note": "[Benzoic acid]", "values": [{"measurement": "Salt-forming morphology", "setting": "[1]", "result": "Oil^#"}]}
{"molecule": "O=C(O)CNC(=O)c1ccccc1", "note": "[Hippuric acid]", "values": [{"measurement": "Salt-forming morphology", "setting": "[1]", "result": "Oil^#"}]}
{"molecule": "O=C(O)c1cc(O)ccc1O", "note": "[Gentisic acid]", "values": [{"measurement": "Salt-forming morphology", "setting": "[1]", "result": "Gel^†"}]}
{"molecule": "COc1ccc(CCC(=O)N(CCCN)CCCNCCCN(CCCN)C(=O)CCc2ccc(OC)c(OC)c2)cc1OC", "note": "[bis((N-3-aminopropyl)-(N-(3,4-dimethoxyphenylpropionyl)))aminopropylamine phosphate]", "values": [{"measurement": "solubility", "setting": "[5]; simulated fasting intestinal juice (FaSSIF), fassif, simulated fasting intestinal juice, read-out: Solubility in FaSSIF", "result": "> 9000", "unit": "µg/mL"}, {"measurement": "solubility", "setting": "[5]; simulated feeding intestinal juice (FeSSIF), fessif, simulated feeding intestinal juice, read-out: Solubility in FeSSIF", "result": "> 9000", "unit": "µg/mL"}, {"measurement": "solubility", "setting": "[5]; simulated gastric juice (SGF), simulated gastric fluid, simulated gastric juice, read-out: Solubility in SGF", "result": "> 9000", "unit": "µg/mL"}, {"measurement": "solubility", "setting": "[5]; water, 30 mg in 3 mL, read-out: Solubility in water", "result": "> 9000", "unit": "µg/mL"}, {"measurement": "pH value change during dynamic solubility test", "setting": "[5]; within 24 h", "result": "did not change"}, {"measurement": "Change in properties and purity on storage", "setting": "[2]; 25° C./60% RH, open vial", "result": "no obvious change in properties and purity"}, {"measurement": "Purity (peak area, %) 0 day", "setting": "[2]; 25° C./60% RH, open vial, HPLC", "result": 99.56, "unit": "%"}, {"measurement": "Stability (judgement in words)", "setting": "[2]", "result": "good stability"}, {"measurement": "Hygroscopicity class", "setting": "[3]", "result": "slightly hygroscopic"}, {"measurement": "Hygroscopicity (%)", "setting": "[3]", "result": 1.29, "unit": "%"}]}
{"molecule": "COc1ccc(CCC(=O)NCCCN(CCCN)CCCNC(=O)CCc2ccc(OC)c(OC)c2)cc1OC", "note": "[free base, bis((N-3-aminopropyl)-(N-(3,4-dimethoxyphenylpropionyl)))aminopropylamine]", "values": [{"measurement": "Purity before storage", "setting": "[6]; initial", "result": 97.56, "unit": "%"}, {"measurement": "Purity after left at room temperature for 7 days", "setting": "[6]; room temperature, 7 days", "result": 73.73, "unit": "%"}]}
{"molecule": "bis((N-3-aminopropyl)-(N-(3,4-dimethoxyphenylpropionyl)))aminopropylamine hydrochloride [Hydrochloride^α]", "values": [{"measurement": "Hygroscopicity class", "setting": "[3]", "result": "extremely hygroscopic"}, {"measurement": "Hygroscopicity (%)", "setting": "[3]", "result": 24.7, "unit": "%"}]}
{"molecule": "COc1ccc(CCC(=O)N(CCCN)CCCNCCCN(CCCN)C(=O)CCc2ccc(OC)c(OC)c2)cc1OC", "note": "[Example 7, bis((N-3-aminopropyl)-(N-(3,4-dimethoxyphenylpropionyl)))aminopropylamine phosphate]", "values": [{"measurement": "Change in crystal form after storage", "setting": "[7]; 25° C./60% RH", "result": "no change in crystal form"}, {"measurement": "Change in crystal form after storage", "setting": "[7]; 60° C.", "result": "no change in crystal form"}, {"measurement": "Change in crystal form after storage", "setting": "[7]; 80° C.", "result": "no change in crystal form"}, {"measurement": "Change in crystal form after storage", "setting": "[7]; illumination", "result": "no change in crystal form"}]}
{"molecule": "COc1ccc(CCC(=O)NCCCN(CCCN)CCCNC(=O)CCc2ccc(OC)c(OC)c2)cc1OC.O=P(O)(O)O", "note": "[Comparative Example 1, bis((N-3-aminopropyl)-(N-(3,4-dimethoxyphenylpropionyl)))aminopropylamine phosphate]", "values": [{"measurement": "Hygroscopic behaviour of solid after filtration", "setting": "[8]", "result": "extremely hygroscopic and quickly turned into an oil"}]}
{"molecule": "Oxalate", "values": [{"measurement": "Salt-forming morphology", "setting": "[1]", "result": "Solid"}, {"measurement": "Hygroscopicity class", "setting": "[3]", "result": "extremely hygroscopic"}, {"measurement": "Hygroscopicity (%)", "setting": "[3]", "result": 18.62, "unit": "%"}]}
{"molecule": "O=C(O)/C=C\\C(=O)O", "note": "[Maleic acid]", "values": [{"measurement": "Salt-forming morphology", "setting": "[1]", "result": "Gel^#"}]}
{"molecule": "O=C(O)CCC(=O)O", "note": "[Succinic acid]", "values": [{"measurement": "Salt-forming morphology", "setting": "[1]", "result": "Gel*"}]}
{"molecule": "Cc1ccc(S(=O)(=O)O)cc1", "note": "[p-Toluene sulfonic acid]", "values": [{"measurement": "Salt-forming morphology", "setting": "[1]", "result": "Gel*"}]}
